Test results: patent US10722505B2, “Substituted 2,4 diamino-quinoline as new anticancer agents” (GENOSCIENCE PHARMA, priority 2014, dated 2020)
Counter-ions that a name gives are not always drawn.

What was measured:
[1] = test system: Huh-7 cell line; test: CellTiter-Glo growth inhibition assay, Huh-7; type: cell-based; conditions: Homo sapiens; Huh-7, hepatocellular carcinoma, 72 h
Experimental: All cell lines were maintained in medium containing 1% penicillin-streptomycin (Dutscher, P06-07100) and 10% Fetal Bovine Serum (Gibco, W3387L) except 20% for KG-1 cell line and PBMC, and cultured at 37° C. with 5% CO2.
HepG2, Huh7, HCT-116, MDA-MB-231 and A375 cell lines were cultured in Dulbecco's modified Eagle's medium (Dutscher, L0103).
Cell viability was measured using the CellTiter-Glo® luminescent cell viability assay as described by the manufacturer (Promega, Ref G7571) using an Infinite F200Pro luminometer (Tecan). Briefly, for adherent cells, cells were plated onto 96-well plates (white with clear bottom) in 90 μL of media per well and were allowed to grow overnight before the assay. For cells growing in suspension, cells were plated onto 96-well plates immediately before the assay.
Compounds were added at different concentrations to each well, and cell cultures were incubated for 72 h. Vehicle (H2O) was used as a control, and all compounds were tested in a constant percentage of H2O. After addition of 100 μL of CellTiter-Glo®, luminescence was measured using an Infinite F200Pro (Tecan). EC50 values were determined as the dose of compound required to reduce luminescent values to 50% of the signal obtained for untreated cell cultures. The experimental data were analyzed using a computer program, Graphpad Prism v5 (GraphPad Software, Inc. La Jolla, Calif.). […]

[2] = test system: ALDH+ (CSC) population of MOLM-14 cell line; test: Aldefluor kit assay, ALDH+ compartment in MOLM-14; type: cell-based, human; conditions: 72 h, control = 100
Description: Analysis of the of aldehyde dehydrogenase (ALDH) compartment and high activity level of aldehyde dehydrogenase activity (ALDH+) was used to detect tumor initiating cells (cancer stem cells, CSC) population. The Aldefluor™ kit assay (StemCell Technologies, 01700) allowed to assess the activity of drugs on CSC cells like in a MOLM-14 acute myeloid leukemia cell line population (ref: Storms, R. W., Trujillo, A. P., Springer, J. B., Shah, L., Colvin, O. M., Ludeman, S. M., & Smith, C. (1999). Isolation of primitive human hematopoietic progenitors on the basis of aldehyde dehydrogenase activity. Proceedings of the National Academy of Sciences, 96(16), 9118-9123). The Aldefluor™ kit assay was used according to the procedure described by the manufacturer. Briefly, MOLM-14 cell line was cultured in MEM alpha medium supplemented with 10% v/v Fetal Bovine Serum, 1% Penicillin-Streptomycin and maintained at 37° C. with 5% CO2. 5·10^5 cells were used in this assay. Each compound was added at different concentrations (see table 8), and cell cultures were incubated for 72 h. Vehicle (H2O) was used as a control, and all compounds were tested in a constant percentage of vehicle. Cells obtained from cell culture were incubated for 45 minutes at 37° C. with Aldefluor™ buffer assay containing the Bodipy™-aminoacetaldehyde, a fluorescent ALDH aldehyde substrate. ALDH converts the fluorescent substrate BAAA to the Bodipy™-aminoacetic acid (BAA) which is retained in the cell. An active efflux inhibitor is present in the Adelfluor™ assay buffer in order to avoid the active efflux from the cell of the substrate product ALDH dependent converted BAA. The fluorescent signal is directly proportional to the ALDH activity in the cells and is measured by flow cytometry. A negative control is used to measure the background fluorescence level. For such purpose, 4-(N,N-diethylamino)-benzaldehyde (DEAB) was used as selective ALDH inhibitor. A viability cell count was performed using LIVE/DEAD® Fixable Far Red Dead Cell Stain Kit (Invitrogen). The experimental data are analyzed using a computer program, Graphpad Prism v5 (GraphPad Software, Inc. La Jolla, Calif.) and EC50 values were determined as the dose of compound required to reduce absorbance values to 50% of the signal obtained for vehicle treated cell cultures.

SMILES: CC(C)(C)NC1CCN(c2cc(NCc3ccc(Cl)cc3)nc3ccccc23)CC1 [Compound 2-3, 2-(4-chlorobenzylamino)-4-(4-tert-butylaminopiperidin-1-yl)-quinoline hydrochloride salt]
- EC50 [1]: 1700 nM
- ALdefluor positive CSCs (%) ([2]; MOLM-14, 2.5 μM): 100%
- ALdefluor positive CSCs (%) ([2]; MOLM-14, 5.0 μM): 80%
- ALdefluor positive CSCs (%) ([2]; MOLM-14, 7.5 μM): 20%
